Columns and labels:
human α7 nAChR = biological target: T1, human α7 nAChR (Homo sapiens, UniProt P36544); experiment: Two-electrode voltage clamping of human α7 nAChR expressed in Xenopus oocytes (net-charge / peak current relative to 60 μM ACh); type: cell-based; conditions: for Potentiated response: 30 μM test compound + 10 μM PNU-120596 co-application; for Potentiated response / Relative response: relative to 60 μM ACh control, mean ± SEM, N ≥ 4; for Relative response: net-charge response to 30 μM test compound alone; for functional classification at α7 nAChR: 30 μM alone and with 10 μM PNU-120596, partial agonist = net charge > 1/10th ACh control
T1 construct: expressed in transfected cells; host or cells: Xenopus oocytes
T1 sequence (P36544 23-502): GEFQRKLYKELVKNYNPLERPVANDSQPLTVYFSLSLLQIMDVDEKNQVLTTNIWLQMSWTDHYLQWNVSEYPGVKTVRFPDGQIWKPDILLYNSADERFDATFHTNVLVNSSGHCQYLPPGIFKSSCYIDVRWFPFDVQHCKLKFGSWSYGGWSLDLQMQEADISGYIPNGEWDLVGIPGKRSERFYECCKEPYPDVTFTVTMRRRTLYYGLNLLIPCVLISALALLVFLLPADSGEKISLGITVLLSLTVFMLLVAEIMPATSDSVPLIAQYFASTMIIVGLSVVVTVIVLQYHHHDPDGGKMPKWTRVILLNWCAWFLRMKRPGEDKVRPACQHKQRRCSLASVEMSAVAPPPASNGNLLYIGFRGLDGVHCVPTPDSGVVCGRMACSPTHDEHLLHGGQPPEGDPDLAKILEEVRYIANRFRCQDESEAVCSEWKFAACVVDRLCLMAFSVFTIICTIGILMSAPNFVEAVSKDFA
Protocol: Electrophysiology: The panel of compounds synthesized was assayed using human α7 nAChR expressed in Xenopus oocytes and two-electrode voltage clamping. The partial agonism activity was evaluated, quantified as net-charge for 30 μM applications of compounds, measured relative to the control response to applications of 60 μM ACh. The induction of PAM-sensitive desensitization was detected as the net-charge responses when compounds were co-applied with the PAM PNU-120596 (30 μM compound+10 μM PNU-120596), measured relative to responses to 60 μM ACh applied alone. […] It is a unique property of α7 orthosteric agonist-induced currents that they vary systematically in the relationship between peak current and net charge as a function of the effective concentration applied (Papke & Papke (2002) Br. J. Pharm. 137: 49-61; Papke & Thinschmidt (1998) Neurosci. Let. 256: 163-166). This was due to the concentration-dependent desensitization of the receptors, which is likely to be associated with high levels of agonist binding site occupancy (Williams et al., (2011) J. Gen. Physiol. 137: 369-384) and is observed even when agonists are rapidly applied to small cells (Williams et al., (2012) Mol. Pharmacol. 82: 746-759) or acutely dissociated neurons (Uteshev et al., (2002) Brain Res. 948: 33-46). The control ACh concentration used for these experiments is roughly the EC80 for the net-charge responses.
By normalizing both the peak currents and net-charge measurements of the drug responses at the probe concentration of 30 μM (FIG. 3B) to those of the ACh control, the relationship between the probe concentration and the EC for each of the drugs was estimated (Papke, R. L. (2005) Life Sci.). At a concentration where the ratio of the normalized measures equaled one, the drug would be at the same effective concentration as 60 μM ACh.
Electrophysiology: New compounds were assayed for activity with the α7 nAChR expressed in Xenopus oocytes using two-electrode voltage clamping as previously described in Papke et al., (2014) J. Pharmacol. Experimental Therap. 350: 665-680, incorporated herein by reference in its entirety, and compared to responses evoked by 60 μM Ach (FIGS. 5 and 6). The compound set was assayed at a concentration of 30 μM to provide a standard comparison benchmark.
Based on earlier experience this concentration is high enough to provide an observable response and low enough to avoid possible complications such as channel block. The net-charge response for each compound application is reported relative to those for ACh control applications. Data were expressed as the mean ±S.E.M. from at least four oocytes for each experiment and were plotted by Kaleidagraph (Abelbeck Software, Reading, Pa.).

α3β4 nAChR = α3β4 nAChR (Homo sapiens, UniProt P30926+P32297); experiment: Receptor subtype specificity: α3β4 nAChR activation / antagonism; type: cell-based; conditions: 100 μM
Chain of α3β4 nAChR (P32297 32-505): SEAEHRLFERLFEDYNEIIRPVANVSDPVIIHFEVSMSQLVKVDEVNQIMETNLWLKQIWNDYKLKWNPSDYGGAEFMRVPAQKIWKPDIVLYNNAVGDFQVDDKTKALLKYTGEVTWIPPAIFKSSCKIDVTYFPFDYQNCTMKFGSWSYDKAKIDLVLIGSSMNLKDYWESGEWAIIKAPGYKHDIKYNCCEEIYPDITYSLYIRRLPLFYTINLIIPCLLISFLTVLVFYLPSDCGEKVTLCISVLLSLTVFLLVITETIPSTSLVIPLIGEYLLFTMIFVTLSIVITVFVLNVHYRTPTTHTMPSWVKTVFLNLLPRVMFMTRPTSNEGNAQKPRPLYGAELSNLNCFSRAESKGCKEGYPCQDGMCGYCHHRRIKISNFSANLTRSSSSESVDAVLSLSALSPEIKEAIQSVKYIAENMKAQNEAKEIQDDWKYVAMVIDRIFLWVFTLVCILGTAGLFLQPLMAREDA
Chain of α3β4 nAChR (P30926 22-498): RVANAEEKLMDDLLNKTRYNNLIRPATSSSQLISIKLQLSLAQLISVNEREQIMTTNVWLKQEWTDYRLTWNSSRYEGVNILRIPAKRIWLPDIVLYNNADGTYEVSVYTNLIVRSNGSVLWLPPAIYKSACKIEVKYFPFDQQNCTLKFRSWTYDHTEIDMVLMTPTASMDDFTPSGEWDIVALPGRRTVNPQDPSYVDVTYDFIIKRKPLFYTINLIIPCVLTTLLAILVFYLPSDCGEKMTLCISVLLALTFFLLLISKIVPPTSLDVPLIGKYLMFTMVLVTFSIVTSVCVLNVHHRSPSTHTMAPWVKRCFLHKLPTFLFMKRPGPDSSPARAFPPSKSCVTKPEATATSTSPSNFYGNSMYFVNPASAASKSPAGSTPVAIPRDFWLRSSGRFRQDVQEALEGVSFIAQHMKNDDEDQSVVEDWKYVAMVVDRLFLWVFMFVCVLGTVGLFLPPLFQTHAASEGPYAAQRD

α4β2 nAChR = α4β2 nAChR (Homo sapiens, UniProt P17787+P43681); experiment: Receptor subtype specificity: α4β2 nAChR activation / antagonism; type: cell-based; conditions: for antagonist activity at α4β2: 100 μM
Chain of α4β2 nAChR (P43681 29-627 limits assumed): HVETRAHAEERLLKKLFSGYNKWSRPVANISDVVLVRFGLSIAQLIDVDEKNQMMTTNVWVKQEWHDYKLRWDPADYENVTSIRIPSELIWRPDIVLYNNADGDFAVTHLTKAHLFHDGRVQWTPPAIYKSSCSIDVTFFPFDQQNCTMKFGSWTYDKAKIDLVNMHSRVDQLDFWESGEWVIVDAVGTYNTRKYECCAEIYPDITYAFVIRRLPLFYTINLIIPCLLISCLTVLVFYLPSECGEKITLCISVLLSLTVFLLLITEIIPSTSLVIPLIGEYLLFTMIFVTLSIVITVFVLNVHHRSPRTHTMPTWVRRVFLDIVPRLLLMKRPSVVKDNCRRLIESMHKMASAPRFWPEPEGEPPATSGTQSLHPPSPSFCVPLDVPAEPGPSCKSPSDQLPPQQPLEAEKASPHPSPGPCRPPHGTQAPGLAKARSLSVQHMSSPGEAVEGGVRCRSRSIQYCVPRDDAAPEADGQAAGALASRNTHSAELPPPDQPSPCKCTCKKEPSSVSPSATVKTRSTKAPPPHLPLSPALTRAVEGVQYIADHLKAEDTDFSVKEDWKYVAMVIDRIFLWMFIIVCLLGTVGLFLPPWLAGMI
Chain of α4β2 nAChR (P17787 26-502): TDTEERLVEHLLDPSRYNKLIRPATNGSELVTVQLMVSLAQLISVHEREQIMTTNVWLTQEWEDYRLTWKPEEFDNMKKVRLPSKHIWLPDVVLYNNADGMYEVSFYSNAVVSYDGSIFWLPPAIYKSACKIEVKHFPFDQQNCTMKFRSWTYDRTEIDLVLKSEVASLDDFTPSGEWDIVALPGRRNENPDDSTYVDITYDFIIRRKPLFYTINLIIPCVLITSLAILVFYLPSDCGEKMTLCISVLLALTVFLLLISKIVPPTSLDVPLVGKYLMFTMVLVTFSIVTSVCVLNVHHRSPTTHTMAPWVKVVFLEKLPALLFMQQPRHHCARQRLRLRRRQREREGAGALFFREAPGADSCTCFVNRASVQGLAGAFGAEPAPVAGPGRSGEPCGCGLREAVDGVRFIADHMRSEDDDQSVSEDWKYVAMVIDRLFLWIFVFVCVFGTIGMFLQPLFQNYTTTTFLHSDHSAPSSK

[1] = tested on: LPS-stimulated secretion of TNF-α in rat cultured microglia; conditions: cited from earlier work
mouse pain models = conditions: formalin- and acetic acid-induced nociceptive conditions, chronic constrictive nerve injury; cited from earlier work

| Structure (SMILES) | Potentiated response (human α7 nAChR) | Relative response (human α7 nAChR) | melting point [°C] | functional classification at α7 nAChR (human α7 nAChR) | PAM-dependent response compared to the parent unsubstituted diEPP (human α7 nAChR; co-application with PNU-120596) [%] | antagonism of α3β4 (α3β4 nAChR) | activation / partial agonism of α4β2 nAChR (α4β2 nAChR) | antagonist activity at α4β2 (α4β2 nAChR) | PAM-dependent currents relative to ACh (human α7 nAChR; co-application with PNU-120596, meta-substituted series) [fold] | suppression of LPS-stimulated secretion of TNF-α [1] | antinociceptive activity (mouse pain models) |
| --- | --- | --- | --- | --- | --- | --- | --- | --- | --- | --- | --- |
| CCN1CCN(c2ccc(C(F)(F)F)cc2)CC1 [Compound 1n, 1-ethyl-4-(4-(trifluoromethyl)phenyl)piperazine] | 1.4 ± 0. | 0.000 ± 0.004 | 56.3 to 56.5 | – | – | – | – | – | – | – | – |
| CCN1CCN(c2ccc(F)cc2)CC1 [Compound 1r, 1-ethyl-4-(4-fluorophenyl)piperazine] | 0.0 ± 0.0 | 0.000 ± 0.003 | 30 to 30.5 | – | – | – | – | – | – | – | – |
| CC[N+]1(CC)CCN(c2ccc(C)cc2)CC1.[I-] [Compound 2a, 1,1-diethyl-4-p-tolylpiperazin-1-ium iodide] | 3.6 ± 2.0 | 0.011 ± 0.003 | 147.4 to 148.8 | candidate silent agonists | – | – | – | – | – | – | – |
| CC[N+]1(CC)CCN(c2cccc(C)c2)CC1.[I-] [Compound 2d, 1,1-diethyl-4-m-tolylpiperazin-1-ium iodide] | 0.2 ± 0.1 | 0.001 ± 0.000 | 144 to 145 | no significant activity as either partial agonists or as silent agonists | – | – | – | – | – | – | – |
| CC[N+]1(CC)CCN(c2cccc(OC)c2)CC1.[I-] [Compound 2g, 1,1-diethyl-4-(3-methoxyphenyl)piperazin-1-ium iodide] | 0.6 ± 0.2 | 0.011 ± 0.011 | – | no significant activity as either partial agonists or as silent agonists | 50 | significant antagonism | – | – | – | – | – |
| CC[N+]1(CC)CCN(c2ccc(C(F)(F)F)cc2)CC1.[I-] [Compound 2n, 1,1-diethyl-4-(4-(trifluoromethyl)phenyl)piperazin-1-ium iodide] | 61.8 ± 7.7 | 0.032 ± 0.003 | – | candidate silent agonists | – | – | neither to be partial agonists | nor to have significant antagonist activity | – | – | – |
| CC[N+]1(CC)CCN(c2cccc(Br)c2)CC1.[I-] [Compound 2p, 4-(3-bromophenyl)-1,1-diethylpiperazin-1-ium iodide] | 10.0±1.7 | 0.040 ± 0.006 | – | candidate silent agonists | – | – | neither to be partial agonists | nor to have significant antagonist activity | 9.98 | – | – |
| O=C(c1ccc(-c2cccc(C(F)(F)F)c2)o1)N1CCN2CCC1CC2 [NS-6740, 1,4-diazabicyclo[3.2.2]nonan-4-yl(5-(3-(trifluoromethyl)phenyl)furan-2-yl) methanone] | – | – | – | – | – | – | – | – | – | more efficacious than some agonists (including choline) | showed antinoceptive activity |
